Reference: US10189957B2, “Formulation process method to produce spray dried products” (ISP INVESTMENTS LLC, priority 2007, dated 2019)

Tests used:
[1] = Dissolution test, USP apparatus II (paddles), powders in size 1 hard gelatin capsules; format: physicochemical; conditions: amount equivalent to 50 mg efavirenz, capsules with additional 15% croscarmellose sodium, 37° C.
Description: A. The dissolution properties of both amorphous compositions were tested and compared to crystalline EFV. An amount equivalent to 50 mg efavirenz was analyzed. Powders were hand-filled into size 1 hard gelatin capsules (Shinogi Qualicaps) with an additional 15% croscarmellose sodium (Ac-Di-Sol®, FMC BioPolymers). USP apparatus II (paddles) (VK 7010®, Varian Inc.) was used, with a bath temperature of 37° C. and a paddle speed of 50 rpm for 60 minutes.
B. Each of the amorphous powders from Examples 1 and 2 achieved higher rate of release and maximum aqueous concentration than the crystalline form (FIG. 6, Table 2). The initial rate of release from the amorphous powders was more than 10-times higher than the crystalline form.

[2] = Solubility in ethyl acetate at standard laboratory conditions; format: physicochemical; conditions: about 25° C. and 1 atmosphere
Description: A dispersion was prepared containing 1 ezetimibe: 1 PVP K-12 at 1% total solids in ethyl acetate at standard laboratory conditions (about 25° C. and 1 atmosphere).

| extent of release ([1]; paddle speed 50 rpm for 60 minutes) | rate of release, 0-15 min ([1]; paddle speed 50 rpm, 0-15 min) | solubility in ethyl acetate [2] | Structure (SMILES) |
| --- | --- | --- | --- |
| 10% | 0.13 mg/min | – | O=C1Nc2ccc(Cl)cc2[C@@](C#CC2CC2)(C(F)(F)F)O1 [crystalline EFV, efavirenz] |
| – | – | soluble | O=C1[C@H](CC[C@H](O)c2ccc(F)cc2)[C@@H](c2ccc(O)cc2)N1c1ccc(F)cc1 [ezetimibe] |
